Experiments:
Bacteroides fragilis [1] = experiment: Antibacterial activity against Bacteroides fragilis assessed as susceptible isolates by CLSI agar dilution method; type: functional
Bacteroides fragilis [2] = experiment: Antibacterial activity against Bacteroides fragilis assessed as resistant isolates by CLSI agar dilution method; type: functional
[3] = system: Bacteroides thetaiotaomicron; experiment: Antibacterial activity against beta-lactamase producing Bacteroides thetaiotaomicron assessed as susceptible isolates by CLSI agar dilution method; type: functional
[4] = system: Bacteroides thetaiotaomicron; experiment: Antibacterial activity against beta-lactamase producing Bacteroides thetaiotaomicron assessed as resistant isolates by CLSI agar dilution method; type: functional
Phocaeicola vulgatus [5] = experiment: Antibacterial activity against beta-lactamase producing Bacteroides vulgatus by CLSI agar dilution method; type: functional
Phocaeicola vulgatus [6] = experiment: Antibacterial activity against beta-lactamase producing Bacteroides vulgatus assessed as susceptible isolates by CLSI agar dilution method; type: functional
Phocaeicola vulgatus [7] = experiment: Antibacterial activity against beta-lactamase producing Bacteroides vulgatus assessed as resistant isolates by CLSI agar dilution method; type: functional
Bacteroides uniformis [8] = experiment: Antibacterial activity against beta-lactamase producing Bacteroides uniformis by CLSI agar dilution method; type: functional
Bacteroides uniformis [9] = experiment: Antibacterial activity against beta-lactamase producing Bacteroides uniformis assessed as susceptible isolates by CLSI agar dilution method; type: functional
Bacteroides uniformis [10] = experiment: Antibacterial activity against beta-lactamase producing Bacteroides uniformis assessed as resistant isolates by CLSI agar dilution method; type: functional
Bacteroides caccae [11] = experiment: Antibacterial activity against beta-lactamase producing Bacteroides caccae by CLSI agar dilution method; type: functional
Bacteroides caccae [12] = experiment: Antibacterial activity against beta-lactamase producing Bacteroides caccae assessed as susceptible isolates by CLSI agar dilution method; type: functional
Bacteroides caccae [13] = experiment: Antibacterial activity against beta-lactamase producing Bacteroides caccae assessed as resistant isolates by CLSI agar dilution method; type: functional
Fusobacterium varium [14] = experiment: Antibacterial activity against Fusobacterium varium by CLSI agar dilution method; type: functional
Fusobacterium nucleatum [15] = experiment: Antibacterial activity against Fusobacterium nucleatum by CLSI agar dilution method; type: functional
Fusobacterium mortiferum [16] = experiment: Antibacterial activity against Fusobacterium mortiferum by CLSI agar dilution method; type: functional
[17] = system: Fusobacterium necrophorum; experiment: Antibacterial activity against Fusobacterium necrophorum by CLSI agar dilution method; type: functional
Fusobacterium varium [18] = experiment: Antibacterial activity against Fusobacterium varium assessed as susceptible isolates by CLSI agar dilution method; type: functional
Fusobacterium nucleatum [19] = experiment: Antibacterial activity against Fusobacterium nucleatum assessed as susceptible isolates by CLSI agar dilution method; type: functional
Fusobacterium mortiferum [20] = experiment: Antibacterial activity against Fusobacterium mortiferum assessed as susceptible isolates by CLSI agar dilution method; type: functional
[21] = system: Fusobacterium necrophorum; experiment: Antibacterial activity against Fusobacterium necrophorum assessed as susceptible isolates by CLSI agar dilution method; type: functional
Fusobacterium varium [22] = experiment: Antibacterial activity against Fusobacterium varium assessed as resistant isolates by CLSI agar dilution method; type: functional
Fusobacterium nucleatum [23] = experiment: Antibacterial activity against Fusobacterium nucleatum assessed as resistant isolates by CLSI agar dilution method; type: functional
Fusobacterium mortiferum [24] = experiment: Antibacterial activity against Fusobacterium mortiferum assessed as resistant isolates by CLSI agar dilution method; type: functional
[25] = system: Fusobacterium necrophorum; experiment: Antibacterial activity against Fusobacterium necrophorum assessed as resistant isolates by CLSI agar dilution method; type: functional
Prevotella buccae [26] = experiment: Antibacterial activity against Prevotella buccae by CLSI agar dilution method; type: functional; details: Segatella buccae
Prevotella bivia [27] = experiment: Antibacterial activity against Prevotella bivia by CLSI agar dilution method; type: functional
Prevotella intermedia [28] = experiment: Antibacterial activity against Prevotella intermedia by CLSI agar dilution method; type: functional
[29] = system: Prevotella melaninogenica; experiment: Antibacterial activity against Prevotella melaninogenica by CLSI agar dilution method; type: functional
Prevotella buccae [30] = experiment: Antibacterial activity against Prevotella buccae assessed as susceptible isolates by CLSI agar dilution method; type: functional, Segatella buccae
Prevotella bivia [31] = experiment: Antibacterial activity against Prevotella bivia assessed as susceptible isolates by CLSI agar dilution method; type: functional
Prevotella intermedia [32] = experiment: Antibacterial activity against Prevotella intermedia assessed as susceptible isolates by CLSI agar dilution method; type: functional
[33] = system: Prevotella melaninogenica; experiment: Antibacterial activity against Prevotella melaninogenica assessed as susceptible isolates by CLSI agar dilution method; type: functional
Prevotella buccae [34] = experiment: Antibacterial activity against Prevotella buccae assessed as resistant isolates by CLSI agar dilution method; type: functional, Segatella buccae
Prevotella bivia [35] = experiment: Antibacterial activity against Prevotella bivia assessed as resistant isolates by CLSI agar dilution method; type: functional
Prevotella intermedia [36] = experiment: Antibacterial activity against Prevotella intermedia assessed as resistant isolates by CLSI agar dilution method; type: functional
[37] = system: Prevotella melaninogenica; experiment: Antibacterial activity against Prevotella melaninogenica assessed as resistant isolates by CLSI agar dilution method; type: functional
Veillonella parvula = experiment: Antibacterial activity against Veillonella parvula by CLSI agar dilution method; type: functional
Clostridium perfringens = experiment: microbe, parasite or virus in culture; type: functional
[38] = system: Clostridium paraputrificum; experiment: Antibacterial activity against beta-lactamase producing Clostridium paraputrificum by CLSI agar dilution method; type: functional
Clostridium septicum [39] = experiment: Antibacterial activity against beta-lactamase producing Clostridium septicum by CLSI agar dilution method; type: functional
Clostridium tertium [40] = experiment: Antibacterial activity against beta-lactamase producing Clostridium tertium by CLSI agar dilution method; type: functional
[41] = system: Clostridium paraputrificum; experiment: Antibacterial activity against beta-lactamase producing Clostridium paraputrificum assessed as susceptible isolates by CLSI agar dilution method; type: functional
Clostridium septicum [42] = experiment: Antibacterial activity against beta-lactamase producing Clostridium septicum assessed as susceptible isolates by CLSI agar dilution method; type: functional
Clostridium tertium [43] = experiment: Antibacterial activity against beta-lactamase producing Clostridium tertium assessed as susceptible isolates by CLSI agar dilution method; type: functional
Bacteroides fragilis [44] = experiment: Antibacterial activity against Bacteroides fragilis by CLSI agar dilution method; type: functional
[45] = system: Bacteroides thetaiotaomicron; experiment: Antibacterial activity against beta-lactamase producing Bacteroides thetaiotaomicron by CLSI agar dilution method; type: functional
[46] = system: Clostridium paraputrificum; experiment: Antibacterial activity against beta-lactamase producing Clostridium paraputrificum assessed as resistant isolates by CLSI agar dilution method; type: functional
Clostridium septicum [47] = experiment: Antibacterial activity against beta-lactamase producing Clostridium septicum assessed as resistant isolates by CLSI agar dilution method; type: functional
Clostridium tertium [48] = experiment: Antibacterial activity against beta-lactamase producing Clostridium tertium assessed as resistant isolates by CLSI agar dilution method; type: functional
[49] = system: Peptostreptococcus anaerobius; experiment: Antibacterial activity against beta-lactamase producing Peptostreptococcus anaerobius by CLSI agar dilution method; type: functional
[50] = system: Peptostreptococcus anaerobius; experiment: Antibacterial activity against beta-lactamase producing Peptostreptococcus anaerobius assessed as susceptible isolates by CLSI agar dilution method; type: functional
[51] = system: Peptostreptococcus anaerobius; experiment: Antibacterial activity against beta-lactamase producing Peptostreptococcus anaerobius assessed as resistant isolates by CLSI agar dilution method; type: functional
Parvimonas micra [52] = experiment: Antibacterial activity against beta-lactamase producing Micromonas micros by CLSI agar dilution method; type: functional
Parvimonas micra [53] = experiment: Antibacterial activity against beta-lactamase producing Micromonas micros assessed as susceptible isolates by CLSI agar dilution method; type: functional
Parvimonas micra [54] = experiment: Antibacterial activity against beta-lactamase producing Micromonas micros assessed as resistant isolates by CLSI agar dilution method; type: functional
[55] = system: Peptoniphilus asaccharolyticus; experiment: Antibacterial activity against beta-lactamase producing Peptoniphilus asaccharolyticus by CLSI agar dilution method; type: functional
[56] = system: Peptoniphilus asaccharolyticus; experiment: Antibacterial activity against beta-lactamase producing Peptoniphilus asaccharolyticus assessed as susceptible isolates by CLSI agar dilution method; type: functional
[57] = system: Peptoniphilus asaccharolyticus; experiment: Antibacterial activity against beta-lactamase producing Peptoniphilus asaccharolyticus assessed as resistant isolates by CLSI agar dilution method; type: functional
Finegoldia magna [58] = experiment: Antibacterial activity against beta-lactamase producing Finegoldia magna by CLSI agar dilution method; type: functional
Finegoldia magna [59] = experiment: Antibacterial activity against beta-lactamase producing Finegoldia magna assessed as susceptible isolates by CLSI agar dilution method; type: functional
Finegoldia magna [60] = experiment: Antibacterial activity against beta-lactamase producing Finegoldia magna assessed as resistant isolates by CLSI agar dilution method; type: functional

Cc1ncc([N+](=O)[O-])n1CCO [METRONIDAZOLE]
0.5 µg/mL: MIC50 (Fusobacterium varium [14]) | MIC50 (Fusobacterium nucleatum [15]) | MIC50 (Fusobacterium mortiferum [16]) | MIC50 [17] | MIC50 [49] | MIC50 (Parvimonas micra [52]) | MIC50 [55] | MIC50 (Finegoldia magna [58])
1 µg/mL: MIC50 (Phocaeicola vulgatus [5]) | MIC50 (Bacteroides uniformis [8]) | MIC50 (Bacteroides caccae [11]) | MIC90 (Fusobacterium varium [14]) | MIC90 (Fusobacterium nucleatum [15]) | MIC90 (Fusobacterium mortiferum [16]) | MIC90 [17] | MIC50 (Prevotella buccae [26]) | MIC50 (Prevotella bivia [27]) | MIC50 (Prevotella intermedia [28]) | MIC50 [29] | MIC (Veillonella parvula) | MIC50 [45]
88%: Activity [50] | Activity (Parvimonas micra [53]) | Activity [56] | Activity (Finegoldia magna [59])
9%: Activity [51] | Activity (Parvimonas micra [54]) | Activity [57] | Activity (Finegoldia magna [60])
4 µg/mL: MIC90 (Phocaeicola vulgatus [5]) | MIC90 (Bacteroides uniformis [8]) | MIC90 (Bacteroides caccae [11])
8 µg/mL: MIC90 (Prevotella buccae [26]) | MIC90 (Prevotella bivia [27]) | MIC90 (Prevotella intermedia [28]) | MIC90 [29] | MIC50 (Clostridium perfringens) | MIC50 [38] | MIC50 (Clostridium septicum [39]) | MIC50 (Clostridium tertium [40]) | MIC90 (Bacteroides fragilis [44])
98%: Activity (Bacteroides fragilis [1])
2 µg/mL: MIC50 (Bacteroides fragilis [44]) | MIC90 [45]
64%: Activity [41] | Activity (Clostridium septicum [42]) | Activity (Clostridium tertium [43])
100%: Activity [3] | Activity (Phocaeicola vulgatus [6]) | Activity (Bacteroides uniformis [9]) | Activity (Bacteroides caccae [12]) | Activity (Fusobacterium varium [18]) | Activity (Fusobacterium nucleatum [19]) | Activity (Fusobacterium mortiferum [20]) | Activity [21]
0%: Activity (Bacteroides fragilis [2]) | Activity [4] | Activity (Phocaeicola vulgatus [7]) | Activity (Bacteroides uniformis [10]) | Activity (Bacteroides caccae [13]) | Activity (Fusobacterium varium [22]) | Activity (Fusobacterium nucleatum [23]) | Activity (Fusobacterium mortiferum [24]) | Activity [25] | Activity (Prevotella buccae [34]) | Activity (Prevotella bivia [35]) | Activity (Prevotella intermedia [36]) | Activity [37]
11%: Activity [46] | Activity (Clostridium septicum [47]) | Activity (Clostridium tertium [48])
16 µg/mL: MIC90 (Clostridium perfringens) | MIC90 [38] | MIC90 (Clostridium septicum [39]) | MIC90 (Clostridium tertium [40]) | MIC90 [49] | MIC90 (Parvimonas micra [52]) | MIC90 [55] | MIC90 (Finegoldia magna [58])
94%: Activity (Prevotella buccae [30]) | Activity (Prevotella bivia [31]) | Activity (Prevotella intermedia [32]) | Activity [33]
